These results are taken from patent publication US20240408082A1, “METHODS FOR TREATING CANCERS AND TUMORS” (BEYONDSPRING PHARMACEUTICALS, INC., priority 2021, published 2024).

Each structure is given as a SMILES string.

Experiment [1] concerns soft tissue sarcoma models. In words: 3D clonogenic assay, Example 2, soft tissue sarcoma models. It is filed as cell-based. The following applies: n=8 models. The method, then: (§1) The present study investigated plinabulin for anticancer activity ex vivo in 68 out of 71 originally planned patient-derived xenograft (PDX) models representing major cancer types. Experiments were performed using a 3D clonogenic assay in a 96-well format with colony count based on image analysis as a read-out. By using this assay, the investigational compound was assessed for the ability to inhibit anchorage independent growth and ex vivo colony formation of tumor cells in semi-solid medium.
(§2) A master stock solution of plinabulin was prepared by dissolving the compound in DMSO at a concentration of 9.9 mM. Working stock solutions were prepared by diluting the master stock solution with DMSO to a concentration of 0.99 mM (330-fold the highest test concentration). Small aliquots of the master and working stock were stored at −20° C. […]
(§3) Plinabulin was investigated in 68 PDX models representing a number of cancer types. […] The percentage of viable cells was determined in a Neubauer-hemocytometer using trypan blue exclusion. […]
(§4) The clonogenic assay was carried out in a 96 well plate format using ultra low attachment plates. […] Cultures were incubated at 37° C. and 7.5% CO2 in a humidified atmosphere 13 days in total and monitored closely for colony growth using an inverted microscope. […]

Experiment [2] concerns Her2-enriched breast cancer models. In words: 3D clonogenic assay, Example 2, Her2-enriched breast cancer models. It is filed as cell-based. The conditions noted are these: n=6 models. On the procedure: as §1, §2, §3, §4

Take `CC(C)(C)c1[nH]cnc1/C=c1\[nH]c(=O)/c(=C/c2ccccc2)[nH]c1=O` [plinabulin, (3Z,6Z)-3-Benzylidene-6-{[5-(2-methyl-2-propanyl)-1H-imidazol-4-yl]methylene}-2,5-piperazinedione]: the “geometric mean absolute IC70” value in experiment [1] and in experiment [2] was > 3000 nM in each case. Besides, the IC50 in experiment [1] (read-out: geom. mean abs. IC50) was 2580 nM; in experiment [2] (read-out: geom. mean abs. IC50), 2250 nM.

In general, IC50 refers to the concentration that inhibits the measured activity by half.
